The subject of data set [1] is P388 leukemia. Nature of the data set: Antitumor effect against in vivo murine transplantable P388 leukemia. The arrangement: species or system mice. On the procedure:
(§1) Antitumor activity of representative compounds of the present invention was determined using in vivo murine transplantable P388 leukemia and B16 melanoma models.
P388 leukemia: female CDF1 and male BDF1 mice were inoculated by intraperitoneal injection of 0.8 ml diluted ascitic fluid containing 10^6 cells.
(§2) Test materials were dissolved in 0.9% saline containing 10% dimethyl sulfoxide and graded doses of them were administered to mice intraperitoneally 24 hrs after tumor implantation. Two dosing schedules were used for the p388 leukemia experiment: once daily on day 1 through day 3 (QD 1→3); and once daily on day 1 through day 9 (QD 1→9). The QD 1→9 schedule was used for the B16 melanoma experiment.
(§3) Antitumor activity is evaluated as the increase in mediam survival time (MST) of treated (T) and control (C) animals for various dosage regimens expressed as a percentage ratio (T/C %=MST of treated.div.MST of control×100). For both in vivo P388 leukemia and in vivo B16 melanoma models, values for percentage ratios of 125 and above indicate significant antitumor effect.

Data set [2] deals with B16 melanoma. As to the kind of experiment: Antitumor effect against in vivo murine B16 melanoma. The arrangement: species or system mice. To be noted: QD 1→9 ip. As to the method: as §1
B16 melanoma; male BDF1 mice were implanted with 0.5 ml of a 10% tumor brei intraperitoneally.
as §2, §3

The subject of data set [3] is ddy mice. To be noted: single intraperitoneal administration. As to the method:
The acute toxicity for compounds of Examples 1, 2, and 3 was determined in ddy mice by single intraperitoneal administration.

Each structure is given as a SMILES string.

Take `CCCCCCCCCCCCCCC(O)C(=O)N[C@H](C(=O)NC1CC(O)CCNC(=O)/C=C/C(C)NC1=O)[C@@H](C)O` (stereo partly drawn) [Example 5, 2-Hydroxy-hexadecanoyl-III]: the “MST (% T/C)” value in data set [1] (1 mg/kg/day, QD 1→3 ip) was determined as 118 % T/C; in data set [1] (3 mg/kg/day, QD 1→3 ip), 132 % T/C; in data set [1] (10 mg/kg/day, QD 1→3 ip), 132 % T/C.

Regarding `CCCCCCCCCCCCCCCC(=O)N[C@H](C(=O)NC1CC(O)CCNC(=O)/C=C/C(C)NC1=O)[C@@H](C)O` (stereo partly drawn) [Example 10, Palmitoyl-L-Threonyl-II], the “MST (% T/C)” value in data set [1] (1 mg/kg/day, QD 1→3 ip) stood at 114 % T/C; in data set [1] (3 mg/kg/day, QD 1→3 ip), 119 % T/C; in data set [1] (10 mg/kg/day, QD 1→3 ip) it was 138 % T/C.

Regarding `CCCCCC=CCCC=CC=CC(=O)NC(C(=O)NC1CC(O)CCNC(=O)C=CC(C)NC1=O)C(C)O` (stereo not drawn) [BU-2867T B, reference compound], the “MST (% T/C)” value in data set [2] (1 mg/kg/day) is reported as 126 % T/C; in data set [2] (2 mg/kg/day), “Tox”; in data set [2] (.13 mg/kg/day), 108 % T/C; in data set [2] (.25 mg/kg/day), 111 % T/C; in data set [2] (.5 mg/kg/day) it was 118 % T/C; in data set [1] (0.13 mg/kg/day, QD 1→9 ip), 125 % T/C. Also, the “MST (% T/C)” value in data set [1] (0.25 mg/kg/day, QD 1→9 ip) is listed as 130 % T/C; in data set [1] (0.5 mg/kg/day, QD 1→9 ip), 145 % T/C; in data set [1] (0.63 mg/kg/day, QD 1→9 ip) it was 130 % T/C; in data set [1] (1 mg/kg/day, QD 1→9 ip), 170 % T/C; in data set [1] (2 mg/kg/day, QD 1→9 ip), 180 % T/C; in data set [1] (4 mg/kg/day, QD 1→9 ip), “Tox”.

Usually LD50 stands for the dose at which mortality reaches 50%. As to `CCCCCCCCCC(=O)N[C@H](C(=O)NC1CC(O)CCNC(=O)/C=C/C(C)NC1=O)[C@@H](C)O` (stereo partly drawn) [Example 2, n-Decanoyl-III], the “MST (% T/C)” value in data set [1] (0.13 mg/kg/day, QD 1→9 ip) was 109 % T/C; in data set [1] (0.25 mg/kg/day, QD 1→9 ip), 123 % T/C; in data set [1] (0.5 mg/kg/day, QD 1→9 ip), 123 % T/C; in data set [1] (1 mg/kg/day, QD 1→3 ip), 123 % T/C; in data set [1] (1 mg/kg/day, QD 1→9 ip), 127 % T/C; in data set [1] (2 mg/kg/day, QD 1→9 ip), 145 % T/C. Besides, the “MST (% T/C)” value in data set [1] (3 mg/kg/day, QD 1→3 ip) came out at 127 % T/C; in data set [1] (4 mg/kg/day, QD 1→9 ip) it was 155 % T/C; in data set [1] (10 mg/kg/day, QD 1→3 ip) it was 64 % T/C. In data set [3], the LD50 is listed as 50 mg/kg.

Consider `CCCCCCCCCC=CC=CC(=O)NC(C(=O)NC1CC(O)CCNC(=O)C=CC(C)NC1=O)C(C)O` (stereo not drawn) [BU-2867T C, reference compound], for which the “MST (% T/C)” value is on record as 113 % T/C in data set [2] (1 mg/kg/day); 132 % T/C in data set [2] (2 mg/kg/day); “Tox” in data set [2] (4 mg/kg/day); 103 % T/C in data set [2] (.13 mg/kg/day); 103 % T/C in data set [2] (.25 mg/kg/day); 103 % T/C in data set [2] (.5 mg/kg/day). Moreover, the “MST (% T/C)” value in data set [1] (0.13 mg/kg/day, QD 1→9 ip) came out at 130 % T/C; in data set [1] (0.25 mg/kg/day, QD 1→9 ip) it was 160 % T/C; in data set [1] (0.5 mg/kg/day, QD 1→9 ip), 155 % T/C; in data set [1] (0.63 mg/kg/day, QD 1→9 ip), 115 % T/C; in data set [1] (1 mg/kg/day, QD 1→3 ip) it was 124 % T/C; in data set [1] (1 mg/kg/day, QD 1→9 ip) it was 170 % T/C. Moreover, the “MST (% T/C)” value in data set [1] (2 mg/kg/day, QD 1→9 ip) stood at 205 % T/C; in data set [1] (3 mg/kg/day, QD 1→3 ip) it was 129 % T/C; in data set [1] (4 mg/kg/day, QD 1→9 ip) it was 65 % T/C; in data set [1] (10 mg/kg/day, QD 1→3 ip), 57 % T/C.

As to `CCCCCCCCOc1ccc(C(=O)N[C@H](C(=O)NC2CC(O)CCNC(=O)/C=C/C(C)NC2=O)[C@@H](C)O)cc1` (stereo partly drawn) [Example 6, p-n-Octyloxybenzoyl-III], the “MST (% T/C)” value is reported as 140 % T/C in data set [1] (0.13 mg/kg/day, QD 1→9 ip); 150 % T/C in data set [1] (0.25 mg/kg/day, QD 1→9 ip); 155 % T/C in data set [1] (0.5 mg/kg/day, QD 1→9 ip); 120 % T/C in data set [1] (0.63 mg/kg/day, QD 1→9 ip); 150 % T/C in data set [1] (1 mg/kg/day, QD 1→3 ip); “Tox” in data set [1] (1 mg/kg/day, QD 1→9 ip). Also, the “MST (% T/C)” value in data set [1] (3 mg/kg/day, QD 1→3 ip) is “Tox”; in data set [1] (.3 mg/kg/day, QD 1→3 ip), 125 % T/C.

Take `CCCCCCCCC/C=C/C(=O)N[C@H](C(=O)NC1CC(O)CCNC(=O)/C=C/C(C)NC1=O)[C@@H](C)O` (relative stereo) [Example 4, trans-2-Dodecenoyl-III]: the “MST (% T/C)” value is given as 132 % T/C in data set [1] (1 mg/kg/day, QD 1→3 ip); 118 % T/C in data set [1] (3 mg/kg/day, QD 1→3 ip); 118 % T/C in data set [1] (.3 mg/kg/day, QD 1→3 ip).

Consider `CCCCCCCCCCCCCC(=O)N[C@H](C(=O)NC1CC(O)CCNC(=O)/C=C/C(C)NC1=O)[C@@H](C)O` (stereo partly drawn) [Example 3, n-Tetradecanoyl-III], for which the “MST (% T/C)” value in data set [2] (1 mg/kg/day) came out at 116 % T/C; in data set [2] (2 mg/kg/day) it was 124 % T/C; in data set [2] (4 mg/kg/day), 145 % T/C; in data set [2] (.25 mg/kg/day) it was 113 % T/C; in data set [2] (.5 mg/kg/day) it was 113 % T/C; in data set [1] (0.13 mg/kg/day, QD 1→9 ip), 118 % T/C. The “MST (% T/C)” value in data set [1] (0.25 mg/kg/day, QD 1→9 ip) was 132 % T/C; in data set [1] (0.5 mg/kg/day, QD 1→9 ip), 132 % T/C; in data set [1] (1 mg/kg/day, QD 1→3 ip) it was 127 % T/C; in data set [1] (1 mg/kg/day, QD 1→9 ip), 150 % T/C; in data set [1] (2 mg/kg/day, QD 1→9 ip), 150 % T/C; in data set [1] (3 mg/kg/day, QD 1→3 ip), 132 % T/C. Moreover, the “MST (% T/C)” value was found to be 159 % T/C in data set [1] (4 mg/kg/day, QD 1→9 ip) and 55 % T/C in data set [1] (10 mg/kg/day, QD 1→3 ip). In addition, the LD50 in data set [3] is above 25 mg/kg.

Regarding `CCCCCCCC=CC=CC(=O)NC(C(=O)NC1CC(O)CCNC(=O)C=CC(C)NC1=O)C(C)O` (stereo not drawn) [BU-2867T A, reference compound], the “MST (% T/C)” value is recorded as 116 % T/C in data set [2] (1 mg/kg/day); “Tox” in data set [2] (2 mg/kg/day); 97 % T/C in data set [2] (.13 mg/kg/day); 100 % T/C in data set [2] (.25 mg/kg/day); 113 % T/C in data set [2] (.5 mg/kg/day); 130 % T/C in data set [1] (0.13 mg/kg/day, QD 1→9 ip). Besides, the “MST (% T/C)” value in data set [1] (0.25 mg/kg/day, QD 1→9 ip) was 150 % T/C; in data set [1] (0.5 mg/kg/day, QD 1→9 ip), 155 % T/C; in data set [1] (0.63 mg/kg/day, QD 1→9 ip), 110 % T/C; in data set [1] (1 mg/kg/day, QD 1→3 ip), 145 % T/C; in data set [1] (1 mg/kg/day, QD 1→9 ip), 190 % T/C; in data set [1] (2 mg/kg/day, QD 1→9 ip), “Tox”. Also, the “MST (% T/C)” value in data set [1] (3 mg/kg/day, QD 1→3 ip) is listed as “Tox”; in data set [1] (.3 mg/kg/day, QD 1→3 ip) it was 130 % T/C.

Turning to `CCCCCCCCCCCC(=O)N[C@H](C(=O)NC1CC(O)CCNC(=O)/C=C/C(C)NC1=O)[C@@H](C)O` (stereo partly drawn) [Example 1, n-Dodecanoyl-III], the “MST (% T/C)” value in data set [2] (1 mg/kg/day) was 121 % T/C; in data set [2] (2 mg/kg/day) it was 139 % T/C; in data set [2] (4 mg/kg/day), 155 % T/C; in data set [2] (.25 mg/kg/day), 107 % T/C; in data set [2] (.5 mg/kg/day) it was 113 % T/C; in data set [1] (0.13 mg/kg/day, QD 1→9 ip), 127 % T/C. The “MST (% T/C)” value in data set [1] (0.25 mg/kg/day, QD 1→9 ip) came out at 132 % T/C; in data set [1] (0.5 mg/kg/day, QD 1→9 ip) it was 145 % T/C; in data set [1] (1 mg/kg/day, QD 1→3 ip) it was 130 % T/C; in data set [1] (1 mg/kg/day, QD 1→9 ip), 150 % T/C; in data set [1] (2 mg/kg/day, QD 1→9 ip), 159 % T/C; in data set [1] (3 mg/kg/day, QD 1→3 ip) it was 145 % T/C. Further, the “MST (% T/C)” value is listed as 173 % T/C in data set [1] (4 mg/kg/day, QD 1→9 ip) and 155 % T/C in data set [1] (10 mg/kg/day, QD 1→3 ip). This molecule also registered an LD50 in data set [3] of 27 mg/kg.

The values are drawn from US4742047A, “Semi-synthetic peptide antibiotics” (Bristol-Myers Company, priority 1986, dated 1988).
